According to patent US6406720B1, “Cosmetic containing plant extracts” (Laboratoires Serobiologiques (Societe Anonyme), priority 1997, dated 2002):

Test system: tyrosinase
Test: anti-tyrosinase action (oxidation of L-DOPA to DOPACHROME, Mason's method)
Type: biochemical
Conditions: concentration which halves the initial speed of DOPACROME formation
Experimental: To determine the de-pigmenting power of the extracts, their tyrosinase action was evaluated by measuring the product of oxidising L-DOPA to DOPACHROME (by HS Mason's method, 1948), carrying out the following stages: […]
mixing tyrosinase with L-DOPA in the phosphate buffer with an automatic pipette recording the optical density at 475 nm for 2 minutes, then calculating the initial speed of the enzyme reaction and determining the C150 (concentration which halves the initial speed of DOPACROME formation).

In the case of `Oc1ccc(O)cc1` [Hydroquinone], the “C150 anti-tyrosinase effect in %” value is reported as 0.025%.
